The subject of assay [1] is M. tuberculosis H37Rv expressing the green fluorescent protein (H37Rv-GFP). As to the kind of experiment: microbe, parasite or virus in culture. Type of assay: cell-based. The following applies: Mycobacterium tuberculosis, H37RV, 120 h; read-out: QUM (MIC50).
In assay [2] the test system is Raw 264.7 cells infected with H37Rv-GFP. As to the kind of experiment: microbe, parasite or virus in culture. Particulars: Mycobacterium tuberculosis, H37RV, 120 h; read-out: QIM (MIC50). The assay is classed as cell-based, M. tuberculosis.

≈ marks a conversion by molar mass, not a printed value.

For 41 compounds, MIC50 results are on record in patent US11279714B2, “Anti-infective compounds” (priority 2014, dated 2022).

As to `CN(C)C(=O)[C@@H]1CCN(c2nc3sc(C(=O)Nc4ccc(F)cc4)cc3s2)C1` [Compound 309], the MIC50 in assay [1] was 1 to 20 µM (≈ 0.419 to 8.37 µg/mL); in assay [2], below 1 µM.

For `Cc1nc2cc(NC(=O)c3cc4sc(N5CCC(C(O)c6ccc(Cl)cc6)CC5)nc4s3)ccc2o1` (stereo not shown) [Compound 206], the MIC50 was above 20 µM in assay [1] and below 1 µM in assay [2].

For `Cc1nc2cc(CNC(=O)c3cc4sc(N5CCOCC5)nc4s3)ccc2o1` [Compound 229], the MIC50 in assay [1] is above 20 µM; in assay [2], 1 to 20 µM (≈ 0.415 to 8.29 µg/mL).

On to `COc1ccc(CNc2nc3sc(C(=O)Nc4ccc5oc(C)nc5c4)cc3s2)cc1` [Compound 239], for which the MIC50 in assay [1] was 1 to 20 µM (≈ 0.451 to 9.01 µg/mL); in assay [2] it was below 1 µM.

For the compound `Cc1ccc(-c2ccc(NC(=O)c3cc4sc(N(C)C)nc4s3)cc2)cn1` [Compound 240], the MIC50 in assay [1] was above 20 µM; in assay [2], below 1 µM.

Consider `O=C(Nc1ccc(-c2ccc(F)cn2)cc1)c1cc2sc(N3CCNCC3)nc2s1` [Compound 315], for which the results for the MIC50 in assay [1] and in assay [2] were 1 to 20 µM (≈ 0.44 to 8.79 µg/mL) and below 1 µM, respectively.

As to `COc1ccc(NC(=O)c2cc3sc(N4CCC(CO)CC4)nc3s2)cc1` [Compound 120], the MIC50 in assay [1] and in assay [2] was below 1 µM each time.

Turning to `Cc1nc2cc(NC(=O)c3cc4sc(NCCCN5CCOCC5)nc4s3)ccc2o1` [Compound 296], the MIC50 was 1 to 20 µM (≈ 0.458 to 9.15 µg/mL) in assay [1] and below 1 µM in assay [2].

For the compound `Cc1nc2cc(NC(=O)c3cc4sc(N(C)CCCO)nc4s3)ccc2o1` [Compound 238], the MIC50 was 1 to 20 µM (≈ 0.403 to 8.05 µg/mL) in assay [1] and below 1 µM in assay [2].

Regarding `C#CCOc1ccc(-c2ccc(NC(=O)c3cc4sc(NCCN5CCOCC5)nc4s3)cc2)cc1` [Compound 359], the MIC50 in assay [1] was 1 to 20 µM (≈ 0.519 to 10.4 µg/mL); in assay [2], below 1 µM.

`O=C(Nc1ccc(N2CCC(Oc3ccc(F)cc3)CC2)cc1)c1cc2sc(NCCN3CCOCC3)nc2s1` [Compound 295]: the MIC50 in assay [1] and in assay [2] was above 20 µM throughout.

Consider `CCN(CC)c1nc2sc(C(=O)Nc3ccc(OC)cc3)cc2s1` [Compound 287], for which the MIC50 in assay [1] and in assay [2] was below 1 µM throughout.

`Cc1nc2cc(NC(=O)c3cc4sc(N5CCN(CCO)CC5)nc4s3)ccc2o1` [Compound 336]: the MIC50 is 1 to 20 µM (≈ 0.444 to 8.87 µg/mL) in assay [1] and below 1 µM in assay [2].

In the case of `Cc1ccc(-c2ccc(NC(=O)c3cc4sc(N5CCOCC5)nc4s3)cc2)nc1` [Compound 218], the MIC50 in assay [1] is above 20 µM; in assay [2], below 1 µM.

Take `CN(C)C(=O)C1CCN(c2nc3sc(C(=O)Nc4ccc(-c5nn(C)cc5Cl)cc4)cc3s2)CC1` [Compound 276]: the MIC50 in assay [1] was above 20 µM; in assay [2] it was below 1 µM.

Regarding `Cc1nc2cc(NC(=O)c3cc4sc(N5CCC(N)CC5)nc4s3)ccc2o1` [Compound 234], the MIC50 was 1 to 20 µM (≈ 0.414 to 8.27 µg/mL) in assay [1] and below 1 µM in assay [2].

For `CN(CC(O)C(F)(F)F)c1nc2sc(C(=O)Nc3ccc(-c4ccc(F)cn4)cc3)cc2s1` (stereo not shown) [Compound 317], the MIC50 in assay [1] is 1 to 20 µM (≈ 0.497 to 9.93 µg/mL); in assay [2], below 1 µM.

Turning to `CN(C)C(=O)CC1CCN(c2nc3sc(C(=O)Nc4ccc(F)cc4)cc3s2)CC1` [Compound 331], the MIC50 in assay [1] and in assay [2] was below 1 µM each time.

Turning to `COCCN(c1nc2sc(C(=O)Nc3ccc4oc(C)nc4c3)cc2s1)C1CC1` [Compound 270], the MIC50 in assay [1] and in assay [2] was above 20 µM in each case.

Take `Cc1nc2cc(NC(=O)c3cc4ccc(N5CCOCC5)nc4s3)ccc2o1` [Compound 176]: the MIC50 in assay [1] and in assay [2] was above 20 µM in each case.

With `O=C(Nc1ccc(-c2ccc(F)nc2)cc1)c1cc2sc(N3CCN4CCCC4C3)nc2s1` (stereo not shown) [Compound 338], the MIC50 in assay [1] and in assay [2] was below 1 µM in each case.

Take `Cc1nc2cc(NC(=O)c3cc4sc(N5CCC(C(=O)c6ccc(Cl)cc6)CC5)nc4s3)ccc2o1` [Compound 205]: the MIC50 in assay [1] and in assay [2] was above 20 µM each time.

For `CN(CCO)c1nc2sc(C(=O)Nc3ccc4oc(Cc5ccc(F)cc5)nc4c3)cc2s1` [Compound 251], the MIC50 in assay [1] is 1 to 20 µM (≈ 0.483 to 9.65 µg/mL); in assay [2] it was below 1 µM.

For the compound `CN1CCCC(Nc2nc3sc(C(=O)Nc4ccc(F)cc4)cc3s2)C1` (stereo not shown) [Compound 311], the MIC50 in assay [1] was above 20 µM; in assay [2], 1 to 20 µM (≈ 0.391 to 7.81 µg/mL).

Consider `Cc1nc2cc(NC(=O)c3cc4sc(NCCOc5ccc(Cl)cc5)nc4s3)ccc2o1` [Compound 290], for which the MIC50 is above 20 µM in assay [1] and below 1 µM in assay [2].

Consider `O=C(Nc1ccc(-c2ccc(F)nc2)cc1)c1cc2sc(NCCOc3ccc(Cl)cc3)nc2s1` [Compound 301], for which the MIC50 in assay [1] was above 20 µM; in assay [2] it was below 1 µM.

On to `O=C(O)c1ccc(NC(=O)c2cc3sc(N4CCCCC4)nc3s2)cc1` [Compound 51], for which the MIC50 in assay [1] and in assay [2] was 1 to 20 µM (≈ 0.387 to 7.75 µg/mL) throughout.

On to `O=C(Nc1ccc(-c2ccc(F)nc2)cc1)c1cc2sc(N3CCN(CCO)CC3)nc2s1` [Compound 337], for which the MIC50 in assay [1] and in assay [2] was below 1 µM throughout.

In the case of `CN(C)C(=O)CC1CCN(c2nc3sc(C(=O)Nc4ccc(F)cc4)cc3s2)C1` (stereo not shown) [Compound 332], the MIC50 in assay [1] and in assay [2] was below 1 µM in each case.

As to `CN(C)C(=O)C1CCN(c2nc3sc(C(=O)Nc4ccc(-c5nn(C)cc5F)cc4)cc3s2)CC1` [Compound 228], the MIC50 in assay [1] and in assay [2] was below 1 µM throughout.

As for `Cc1nc2cc(NC(=O)c3cc4sc(NCCN5CCN(C)CC5)nc4s3)ccc2o1` [Compound 326], the MIC50 in assay [1] and in assay [2] was above 20 µM throughout.

Take `O=C(Nc1ccc(-c2ccc(F)cn2)cc1)c1cc2sc(N3CCN4CCCC4C3)nc2s1` (stereo not shown) [Compound 324]: the MIC50 in assay [1] and in assay [2] was below 1 µM each time.

`COc1ccc(CN(CCO)c2nc3sc(C(=O)Nc4ccc5oc(C)nc5c4)cc3s2)cc1` [Compound 248]: the MIC50 is 1 to 20 µM (≈ 0.495 to 9.89 µg/mL) in assay [1] and below 1 µM in assay [2].

As for `CN(C)C(=O)C1CCN(c2nc3sc(C(=O)Nc4ccc(-c5ccc(F)nc5)cc4)cc3s2)CC1` [Compound 216], the MIC50 in assay [1] and in assay [2] was below 1 µM in each case.

`CC(C)(C)OC(=O)N1CCN(c2nc3sc(C(=O)Nc4ccc(-c5ccc(F)cn5)cc4)cc3s2)CC1` [Compound 306]: the values for the MIC50 in assay [1] and in assay [2] were above 20 µM and below 1 µM, respectively.

As to `CN(C)C(=O)CC1CCN(c2nc3sc(C(=O)Nc4ccc(-c5ccc(F)nc5)cc4)cc3s2)CC1` [Compound 351], the MIC50 in assay [1] and in assay [2] was below 1 µM throughout.

Consider `COC(CN(C)c1nc2sc(C(=O)Nc3ccc4oc(C)nc4c3)cc2s1)C(F)(F)F` (stereo not shown) [Compound 263], for which the MIC50 in assay [1] and in assay [2] was above 20 µM throughout.

In the case of `Cc1nc2cc(NC(=O)c3cc4sc(N5CCN(C(=O)N(C)C)CC5)nc4s3)ccc2o1` [Compound 237], the MIC50 in assay [1] and in assay [2] was below 1 µM in each case.

In the case of `COCCN(C)c1nc2sc(C(=O)Nc3ccc4oc(C)nc4c3)cc2s1` [Compound 202], the MIC50 in assay [1] and in assay [2] was below 1 µM throughout.

As for `COc1ccc(NC(=O)c2cc3sc(N4CCc5cc(OC)ccc5C4)nc3s2)cc1` [Compound 168], the MIC50 in assay [1] is 1 to 20 µM (≈ 0.452 to 9.03 µg/mL); in assay [2], below 1 µM.

For `O=C(Nc1ccc(F)cc1)c1cc2sc(N3CCC(COc4ccc(Cl)cc4)CC3)nc2s1` [Compound 245], the MIC50 in assay [1] is 1 to 20 µM (≈ 0.502 to 10 µg/mL); in assay [2], below 1 µM.
